In ChEMBL document CHEMBL1201862, “PubChem BioAssay data set” (2004):
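Each compound was tested at five concentrations against cells in 96-well plates for 48 hours. GI50: concentration for 50% inhibition of growth.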 The source made the active and inactive calls. Cut-off read from the data, not from the text of the source: active = GI50 up to about 1.1 µM and inactive = higher.

What was measured:
Experiment in all cases: NCI anticancer screen, dose series, 48 h
[1] = system: LOX IMVI
[2] = system: KM12
[3] = system: ACHN
[4] = system: SW-620
[5] = system: NCI-H522
[6] = system: NCI-H23
[7] = system: K562
[8] = system: UACC-62
[9] = system: A498
[10] = system: HCT-15
[11] = system: SF-268
[12] = system: NCI-H460
[13] = system: MDA-N
[14] = system: IGROV-1
[15] = system: SR
[16] = system: 786-0
[17] = system: Malme-3M
[18] = system: BT-549
[19] = system: MDA-MB-435

Measured: GI50

Cc1cc(=O)oc2c(OS(C)(=O)=O)c(OS(C)(=O)=O)ccc12
inactive: [1] > 100 µM | [2] > 100 µM | [3] > 100 µM | [4] > 100 µM | [5] > 100 µM | [6] > 100 µM | [7] > 100 µM | [8] > 100 µM | [9] > 100 µM | [11] > 100 µM | [12] > 100 µM | [13] > 100 µM | [14] > 100 µM | [15] > 100 µM | [16] > 100 µM | [17] > 100 µM | [18] > 100 µM | [19] > 100 µM
> 100 µM: [10]

Cc1nnc(Sc2nc(C#N)c(C#N)nc2Sc2nnc(C)s2)s1
active: [17] 0.139 µM
2.6 µM: [10]
inactive: [1] 2.72 µM | [2] 23.8 µM | [3] 2.93 µM | [4] 1.67 µM | [5] 1.57 µM | [6] 17.5 µM | [7] 3.48 µM | [8] 17.2 µM | [9] 18.7 µM | [11] 23.6 µM | [12] 28.6 µM | [13] 12.2 µM | [14] 7.24 µM | [15] 9.79 µM | [16] 4.13 µM | [18] 5.61 µM | [19] 12.7 µM

C=CCn1c2c(c3ccccc3c1=O)C(=O)c1ccccc1-2
> 100 µM: [10]
inactive: [1] > 100 µM | [2] > 72.9 µM | [3] 51.9 µM | [4] 73.6 µM | [5] > 100 µM | [6] > 100 µM | [7] > 23 µM | [8] > 78 µM | [9] > 100 µM | [11] > 68.1 µM | [12] 6.28 µM | [13] > 100 µM | [14] > 100 µM | [15] 3.97 µM | [16] 22.4 µM | [17] > 100 µM | [18] > 100 µM | [19] > 87.3 µM

C=CCNC1=C2C[C@@H](C)C[C@@H](OC)[C@@H](OC(=O)CCCN)[C@H](C)/C=C(\C)[C@@H](OC(N)=O)[C@H](OC)/C=C\C=C(/C)C(=O)NC(=CC1=O)C2=O
inactive: [1] 5.45 µM | [2] 4.14 µM | [3] 18.8 µM | [4] 19.7 µM | [5] 6.82 µM | [6] 13.9 µM | [7] 9.16 µM | [8] 15.2 µM | [9] 20.5 µM | [11] 13.2 µM | [12] 14.9 µM | [13] 12.6 µM | [14] 13.5 µM | [15] 6.59 µM | [16] 17.1 µM | [17] 11.4 µM | [18] 8.99 µM | [19] 20.3 µM
19.4 µM: [10]

CCOC(=O)CSc1nnc2cc(CN3CCCC3)c(-c3ccc(Cl)cc3)nn12
inactive: [1] > 100 µM | [2] > 100 µM | [3] > 100 µM | [4] > 100 µM | [5] 39.7 µM | [6] > 100 µM | [7] 83.8 µM | [8] > 100 µM | [9] > 100 µM | [11] > 100 µM | [12] 48.4 µM | [13] 85.9 µM | [14] > 100 µM | [15] 41 µM | [16] 92.3 µM | [17] > 100 µM | [18] > 100 µM | [19] 72.9 µM
> 100 µM: [10]

c1cnc2c(c1)ccc1cccnc12
3.12 µM: [10]
active: [15] 1.02 µM
inactive: [1] 3.61 µM | [2] 4.93 µM | [3] 2.86 µM | [4] 8.69 µM | [5] 5.86 µM | [6] 5.12 µM | [7] 3.67 µM | [8] 3.81 µM | [9] 12.6 µM | [11] 4.07 µM | [12] 2.74 µM | [13] 4.97 µM | [14] 4.26 µM | [16] 3.78 µM | [17] 3.56 µM | [18] 9.79 µM | [19] 5.21 µM

COc1cccc2c1C(=O)C1=C(C2=O)C(O)CC(C)(C)O1 (centres undefined)
inactive: [1] 24.3 µM | [2] 27.9 µM | [3] 36.1 µM | [4] 34.1 µM | [5] 26.2 µM | [6] 28.5 µM | [7] 21 µM | [8] 25.1 µM | [9] > 100 µM | [11] 55.5 µM | [12] 42.9 µM | [13] 19.5 µM | [14] 31.6 µM | [15] 16.3 µM | [16] 42.4 µM | [17] 16.6 µM | [18] 63.7 µM | [19] 20 µM
38.6 µM: [10]

COC(=O)c1cc(C)ccc1/C=C1\Cc2c(C)cc(C)cc2C1=O
inactive: [1] > 30.7 µM | [2] > 44 µM | [3] 60.7 µM | [4] > 100 µM | [5] 21.3 µM | [6] 14.5 µM | [7] > 100 µM | [8] 6.59 µM | [9] 30.8 µM | [11] 15.3 µM | [12] > 85.7 µM | [13] 25.5 µM | [14] 65.3 µM | [15] 20 µM | [16] 14 µM | [17] > 63.4 µM | [18] 36.5 µM | [19] 59 µM
> 100 µM: [10]

NCCCC(N)C(=O)O (centres undefined)
inactive: [1] > 100 µM | [2] > 100 µM | [3] > 100 µM | [4] > 100 µM | [5] > 100 µM | [6] > 100 µM | [7] > 100 µM | [8] > 100 µM | [9] > 100 µM | [11] > 100 µM | [12] > 100 µM | [13] > 100 µM | [14] > 100 µM | [15] > 100 µM | [16] > 100 µM | [17] > 100 µM | [18] > 100 µM | [19] > 100 µM
> 100 µM: [10]

CC(=O)OC(C#N)CC(C)(C)/[N+]([O-])=[N+](\[O-])C(C)(C)CC(C#N)OC(C)=O (centres undefined)
10.6 µM: [10]
inactive: [1] 11.1 µM | [2] 14.5 µM | [3] 12.1 µM | [4] 5.47 µM | [5] 8.47 µM | [6] 17 µM | [7] 3.77 µM | [8] 16.7 µM | [9] 44.6 µM | [11] 10.8 µM | [12] 18 µM | [13] 14.3 µM | [14] 10.8 µM | [15] 2.41 µM | [16] 10.6 µM | [17] 18.5 µM | [18] 14.8 µM | [19] 16.1 µM

COc1ccc(/C=C/C(=O)c2ccc(OC(=O)/C=C/c3ccccc3)cc2)cc1
inactive: [1] 16.7 µM | [2] 8.97 µM | [3] 34.6 µM | [4] 28.1 µM | [5] 19.3 µM | [6] 21 µM | [7] 5.93 µM | [8] 22.7 µM | [9] 25.1 µM | [11] 25 µM | [12] 19.4 µM | [13] 14.5 µM | [14] 18.9 µM | [15] 2.28 µM | [16] 17 µM | [17] 41 µM | [18] 14.9 µM | [19] 7.73 µM
15.7 µM: [10]
